Measurements taken from article PMC11224403, “Des-acyl ghrelin reduces alcohol intake and alcohol-induced reward in rodents” (Translational Psychiatry, 2024).
No end group written: not given here.

Assays:
SERT = experiment: Transporter inhibition in recombinant cell line, SERT; format: cell-based, human; conditions: cocaine at 12.5 µM and 6.25 µM (top concentration 50 µM); 3 h, fluorescence
[1] = tested on: human transporter of dopamine (DAT); experiment: Transporter inhibition in recombinant cell line (neurotransmitter transporter uptake assay), DAT; format: cell-based; conditions: cocaine at such concentration (12.5 µM and 6.25 µM); CHO-K1 cells, 3 h, fluorescence
NET = experiment: Transporter inhibition in recombinant cell line, NET; format: cell-based, human; conditions: cocaine at 12.5 µM and 6.25 µM (top concentration 50 µM); 3 h, fluorescence
[2] = tested on: high alcohol-consuming mice; conditions: central infusion, ref [47]; cited from earlier work
[3] = tested on: memory function via hippocampal mechanisms; conditions: ref [50], [51]; cited from earlier work
[4] = tested on: alcohol-related responses; conditions: preclinical and clinical studies, ref [6–18]; cited from earlier work
Excerpt: Alcohol use disorder (AUD) is a major public health problem with high morbidity and mortality. Its development is complex and the dopaminergic neurons from the ventral tegmental area (VTA) to the nucleus accumbens (NAc) have gained extra interest as they mediate alcohol-induced reward (for review see [2, 3]). Various biological systems participate in the ability of alcohol to interact with these dopamine neurons, and gut-brain peptides have been implied as important modulators (for review see [4]). One of these peptides is ghrelin (i.e., acyl-ghrelin, the acylated form of ghrelin [ ...

CB1 receptor = experiment: Aquoscreen receptor activity assay, CB1; format: cell-based, human; conditions: 60 µM JWH-018, also at 7.5 µM; luminescence
male mice = experiment: Locomotor activity test, alcohol-induced stimulation and DAG per se, mice; format: in vivo, NMRI mice
Excerpt: (§1) Male and female Rcc Han Wistar rats (8–12 weeks old at arrival; Envigo, Horst, Netherlands) were used for the alcohol drinking and locomotor activity experiments as they drink alcohol to intoxicating levels. For in vivo microdialysis studies male Wistar rats (Charles River, Calco, Italy) were used as they display robust dopamine levels in NAc shell after alcohol injection. […] All rodents were allowed to habituate to the animal facility at least one week before they entered an experiment. […] The sample sizes of each experiment were based on previous experience in which statistical significance has been detected. The person who conducted the experiments, and analyzed the collected data was aware of the treatment allocation. Only preset exclusion criteria were used when analyzing the data obtained in attempts to exclude confounding factors in analyzing data. In the alcohol drinking experiments leaking bottles and low alcohol consumption (<3.0 g/kg for males; <3.5 g/kg for females) were preset exclusion criteria. The preset exclusion criterion in the ex vivo HPLC-EC, ELISA, and recombinant cell line experiments was contamination of the sample. Misplaced probes, technical difficulties, and damages to the surgery area were preset exclusion criteria for the in vivo microdialysis experiment. Intra-cage male aggression was the preset exclusion criterion for the locomotor activity and CPP experiments. To minimize tentative confounding factors, the order of treatments was stratified, with treatments being mixed for each animal cage and for each apparatus used as well as balancing the alcohol intake between future treatment groups.
Alcohol was in the behavioral and neurochemical tests injected (intraperitoneally, IP) 5 min before the test.
Locomotor activity tests were conducted in ventilated and dim-lit (4 lux) open field arenas (420 × 420 × 200 mm; Med Associates Inc; Georgia, Vermont, USA). Infra-red beams detected distance traveled, number of jumps, vertical counts, average velocity, stereotypic counts, number of inner zone entries, and time spent in the inner/outer zones of each animal.
In the first test, after 60 min of habituation, male (n = 24) or female (n = 24) rats were injected with vehicle or DAG (0.5, 1.0, or 2.0 mg/kg). 15 min later the activity was monitored for another 60 min. In the second locomotor activity experiment, male mice (n = 32) were allowed to habituate for 60 min. After that, they were injected with vehicle or DAG (0.25, 0.5, or 1.0 mg/kg). After 15 min the activity was monitored for another 60 min.
Therefore, male mice were (n = 32) injected with DAG (1.0 mg/kg) or vehicle 15 min before alcohol or vehicle. The activity registration started 5 min later and was recorded for an additional 60 min. Identical locomotor activity experiments were conducted in new male mice (n = 32), where a lower dose of DAG (0.5 mg/kg) was combined with alcohol.
(§2) The data from drinking experiments were analyzed by unpaired t-test or repeated two-way ANOVA. A two-tailed unpaired t-test analyzed the ELISA, ex vivo HPLC-EC, and cFOS data. In addition, the Pearson test correlated the serum levels and the mean values of alcohol intake in rats. A one-way ANOVA with Bonferroni post hoc tests and unpaired t-test analyzed the locomotor activity and CPP data, respectively. The in vivo microdialysis experiments were evaluated by a repeated two-way ANOVA followed by the Bonferroni post hoc test.

dopamine in NAc shell = experiment: In vivo microdialysis, dopamine release in NAc shell; design: species or system Wistar rats; conditions: male rats (methods), alcohol 2 g/kg IP, n = 8 per group
Excerpt: as §1, with “groups. […]” for “groups.”
as §2, with “In addition, the Pearson test correlated the serum levels and the mean values of alcohol intake in rats.” left out

COC(=O)[C@H]1[C@@H](OC(=O)c2ccccc2)C[C@@H]2CC[C@H]1N2C [cocaine]
inhibition of SERT (SERT): full NET and SERT inhibition at 12.5 µM and 6.25 µM | inhibition of DAT, share of full transporter inhibition [1]: 70–80% | inhibition of NET (NET): full NET and SERT inhibition at 12.5 µM and 6.25 µM

LEAP2: recently discovered inverse GHSR agonist (MTPFWRGVSLRPIGASCRDDSECITRLCRKRRCSLSVAQE; ends and bridges not checked; cysteine pairing not given here; UniProt Q969E1 38-77, looked up)
alcohol intake [2]: reduces alcohol intake in high alcohol-consuming mice after its central infusion

ghrelin (GSSFLSPEHQRVQQRKESKKPPAKLQPR; ends and bridges not checked; also: octanoylated, position not given here; UniProt Q9UBU3 24-51, looked up) [orexigenic peptide, the acylated form of ghrelin]
memory function [3]: enhance memory function via hippocampal mechanisms | alcohol-related responses [4]: enhances

CCCCCn1cc(C(=O)c2cccc3ccccc23)c2ccccc21 [JWH-018]
effect on target receptor CB1 (CB1 receptor): full target receptor inhibition

CCO [alcohol]
locomotor stimulation by alcohol (male mice; alcohol 1.75 g/kg IP (experiment with DAG 0.5 mg/kg)): hyperlocomotion after alcohol (P = 0.0225) | locomotor stimulation by alcohol (male mice; alcohol 1.75 g/kg IP vs vehicle, n = 8 per group (experiment with DAG 1 mg/kg)): caused a locomotor simulation (P = 0.0136) | dopamine in NAc shell, alcohol vs vehicle (dopamine in NAc shell): elevated dopamine in NAc shell (80 min P < 0.001, 160 min P = 0.0011, 180 min P = 0.0037, 200 min P < 0.0001)
